Values joined by “and” are separate entries in the source; they are usually repeats but may differ in a detail not shown here. Equal entries are not always repeated. Where two headings read alike, the source gives them in different places.
What was measured:
[1] = tested on: regulatory CUG of SARS-CoV-2 ORF7a 5'UTR in HEK293T cells; format: cell-based
[2] = molecular target: NSP1 (Severe acute respiratory syndrome coronavirus 2, UniProt P0DTD1)
[3] = molecular target: T1, eIF1A-RPS10 interaction (Homo sapiens, UniProt P46783+P47813); assay: Split-Renilla luciferase eIF1A-RPS10 interaction screen, dose-response; format: biochemical; conditions: summary table; read-out: IC50 concentration (µM), IC50 screen
T1 construct: made in house; host or cells: E. coli BL21 (PRSFduet); unpurified lysate supernatant
T1 sequence (P47813 whole entry, one chain of several): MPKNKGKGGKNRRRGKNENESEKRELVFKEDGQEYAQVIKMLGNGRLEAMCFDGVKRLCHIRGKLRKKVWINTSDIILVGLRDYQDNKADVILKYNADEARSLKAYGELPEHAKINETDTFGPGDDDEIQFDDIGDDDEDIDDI
How it was run: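 Reconstituted Renilla luciferase activity reports eIF1A-RPS10 binding; loss indicates disruption by compound. Recombinant fusions (eIF1A C-terminus to N-RL; RPS10-ΔN-Renilla) expressed in E. coli BL21, used as sonicated supernatants in Tris/KCl/EDTA buffer, with unfused split-RL halves as controls.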

[4] = molecular target: T2, eIF1A without NTT (Homo sapiens, UniProt P47813); assay: Fluorescence binding assay with NTT-truncated eIF1A; conditions: for fluorescence ratio, eIF1A Δ NTT: background-corrected, relative to DMSO or lowest 1Ai concentration, replicate columns
T2 construct: His-bdSUMO (cleaved yes); made in house; host or cells: E. coli (BL-21)
T2 sequence (P47813 31-144 limits assumed): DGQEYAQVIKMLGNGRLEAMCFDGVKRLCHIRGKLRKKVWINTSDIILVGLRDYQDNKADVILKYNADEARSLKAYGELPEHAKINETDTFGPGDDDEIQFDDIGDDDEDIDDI

[5] = molecular target: T3, eIF1A without CTT (Homo sapiens, UniProt P47813); format: binding; conditions: for fluorescence ratio, eIF1A Δ CTT: background-corrected, relative to DMSO or lowest 1Ai concentration, replicate columns
T3 construct: His-bdSUMO (cleaved yes); made in house; host or cells: E. coli (BL-21)
T3 sequence (P47813 1-114 limits assumed): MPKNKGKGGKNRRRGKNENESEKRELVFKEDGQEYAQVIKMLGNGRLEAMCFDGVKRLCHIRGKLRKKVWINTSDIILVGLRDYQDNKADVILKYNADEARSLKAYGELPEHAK

Question: Which results are given for `Cc1ccc(C)n1-c1cc([N+](=O)[O-])ccc1N1CCN(C(=O)c2ccccc2)CC1` [1Ai-9008]?
Answer: average (inverted) ([1]; normalized to DMSO = 1.000, mean of 3 reps): 0.875; CUG/AUG ratio (Renilla/firefly) ([1]; overnight): decreased the CUG/AUG ratio to variable degrees; FF CTG signal, mean of duplicates ([1]; reps 1-3): 19795.8 and 14760.8 and 12081.3; FF vs Rluc ([1]; reps 1-3): 47.590 and 44.537 and 48.991; FF vs Rluc, inverted ([1]; reps 1-3): 0.021 and 0.022 and 0.020; Rluc ATG signal, mean of duplicates ([1]; reps 1-3): 10881500 and 8214985 and 6662440; normalized to DMSO ([1]; reps 1-3, DMSO = 1): 0.864 and 0.923 and 0.839; GFP reporter ratio nsp1/gfp, avg [2]: 0.4707; GFP reporter ratio nsp1/gfp, rep 1 [2]: 0.4454; GFP reporter ratio nsp1/gfp, rep 2 [2]: 0.4961; gfp signal, mean of duplicate wells [2]: 2743.5 and 4942; nsp1 signal, mean of duplicate wells [2]: 1361 and 2201; ratio (nsp1/gfp) [2]: 0.496 and 0.445; IC50 [3]: 27 µM

Question: Which results are given for `CCOc1cc(C(=O)Nc2ccc(Cl)c(-c3nc4ccccc4[nH]3)c2)cc(OCC)c1OCC` [1Ai-5677]?
Answer: binding to NTT-truncated eIF1A [4]: significantly decreased; fluorescence ratio, eIF1A Δ NTT ([4]; 1Ai conc. 0.25 uM): 1; fluorescence ratio, eIF1A Δ NTT ([4]; 1Ai conc. 0.5 uM): 1 and 0.9156; fluorescence ratio, eIF1A Δ NTT ([4]; 1Ai conc. 1 uM): 1.054 and 0.8819; fluorescence ratio, eIF1A Δ NTT ([4]; 1Ai conc. 2 uM): 0.997 and 1.025; fluorescence ratio, eIF1A Δ NTT ([4]; 1Ai conc. 4 uM): 0.8973 and 1.017; fluorescence ratio, eIF1A Δ NTT ([4]; 1Ai conc. 8 uM): 0.994 and 0.865; fluorescence ratio, eIF1A Δ NTT ([4]; 1Ai conc. 16 uM): 1.091 and 0.9072; fluorescence ratio, eIF1A Δ NTT ([4]; 1Ai conc. 32 uM): 1.205 and 0.9494; fluorescence ratio, eIF1A Δ NTT ([4]; 1Ai conc. 64 uM): 1.39 and 0.8945; fluorescence ratio, eIF1A Δ NTT ([4]; 1Ai conc. 256 uM): 1.882 and 1.228; IC50 ([4]; eIF1A Δ NTT, from the titration data, read-out: IC50 (eIF1A Δ NTT titration block)): 109 µM; IC50 ([4]; summary table, fluorescence binding assay, read-out: IC50 concentration (µM), NTT truncation): 109 µM; fluorescence ratio, eIF1A Δ CTT ([5]; 1Ai conc. 0.25 uM): 0.9518 and 1.125; fluorescence ratio, eIF1A Δ CTT ([5]; 1Ai conc. 0.5 uM): 0.9965 and 1.042; fluorescence ratio, eIF1A Δ CTT ([5]; 1Ai conc. 1 uM): 1.031 and 1.16; fluorescence ratio, eIF1A Δ CTT ([5]; 1Ai conc. 2 uM): 1.066 and 1.079; fluorescence ratio, eIF1A Δ CTT ([5]; 1Ai conc. 4 uM): 1.073 and 1.131; fluorescence ratio, eIF1A Δ CTT ([5]; 1Ai conc. 8 uM): 1.007 and 1.089; fluorescence ratio, eIF1A Δ CTT ([5]; 1Ai conc. 16 uM): 1.119 and 1.152; fluorescence ratio, eIF1A Δ CTT ([5]; 1Ai conc. 32 uM): 1.196 and 1.27; fluorescence ratio, eIF1A Δ CTT ([5]; 1Ai conc. 64 uM): 1.276 and 1.31; fluorescence ratio, eIF1A Δ CTT ([5]; 1Ai conc. 256 uM): 1.365 and 1.556; IC50 ([5]; eIF1A Δ CTT, from the titration data, read-out: IC50 (eIF1A Δ CTT titration block)): 79.9 µM; IC50 ([5]; summary table, fluorescence binding assay, read-out: IC50 concentration (µM), CTT truncation): 79.9 µM; GFP reporter ratio nsp1/gfp, avg [2]: 0.572; GFP reporter ratio nsp1/gfp, rep 1 [2]: 0.572; gfp signal, mean of duplicate wells [2]: 1615.5; nsp1 signal, mean of duplicate wells [2]: 924; ratio (nsp1/gfp) [2]: 0.572; IC50 [3]: 15 µM
